Measured values taken from paper PMC12040169 (PLOS Biology, 2025).

Assay: in vitro
Settings: human, hela cells, % viability

SMILES | viability at 28.5 h, 10 µM [%]
Cc1cc(C(F)(F)F)nn1CCNC(=O)c1cn2ccsc2n1 [CBK307260] | 112
CCOc1ccc(NC(=O)NC(CC)c2cnn(C)c2)cc1Cl (stereo not shown) [CBK307262] | 107
CCCS(=O)(=O)NC1CC(C)(C)Cc2c1cnn2-c1ccccc1 (stereo not shown) [CBK307265] | 98.1
CN(c1ncccc1CNC(=O)c1c[nH]c(=O)c(Cl)c1)C1CCCCC1 [CBK307267] | 92.6
Cc1cc(CC(=O)NCCCn2ccnc2C(C)C)on1 [CBK307270] | 99.7
CN(C)CCn1ccnc1C1CCCN(C(=O)Cc2cccc(Cl)c2)C1 (stereo not shown) [CBK307272] | 92.3
N#Cc1cccnc1N1CCC(NC(=O)Cn2cccnc2=O)CC1 [CBK307275] | 95.7
Cc1cc(C)n2nc(CC(=O)NCCCn3cc(Cl)cn3)nc2n1 [CBK307276] | 84.3
COc1cc2c(cc1CN1CCOCC1CC(=O)O)CCC2 (stereo not shown) [CBK307277] | 102
O=C(NCCCn1cc(Cl)cn1)N1CCCN(Cc2cccs2)CC1 [CBK307279] | 105
CCn1c(C2CCN(C(=O)c3ccc(C)c(Cl)c3)CC2)nn(C)c1=O [CBK307280] | 95.9
COc1ccc(Cc2nc(CCNC(C)=O)n(CC(F)(F)F)n2)cc1 [CBK307287] | 77.8
Cc1cc(-c2cn3cc(C(=O)NCCO)nc3c(=O)n2C)c(C)o1 [CBK307288] | 89.4
COCCn1c(CN2Cc3ccc(Cl)cc3C2=O)nnc1[C@H]1C[C@@H](N)C1 [CBK307289] | 102
OC(c1cccs1)C1CCN(Cc2cnn(-c3ccccc3)c2)CC1 (stereo not shown) [CBK307290] | 105
Cc1csc2c(N3CCC(NCCCc4cnn(C)c4)CC3)ncnc12 [CBK307291] | 98.2
Cn1cc(CCC(=O)NC(Cc2ccncc2)[C@H]2C[C@H](O)C2)cn1 (stereo partly shown) [CBK307292] | 82.4
Cc1nc2c(c(N(C)C)n1)CCN(C(=O)C(C)n1cc(Cl)cn1)C2 (stereo not shown) [CBK307293] | 110
Cc1nc2cc(OCc3nc(C(=O)NC4CCNC4=O)co3)ccc2s1 (stereo not shown) [CBK307298] | 91.8
COc1cccc2ncn(CCc3n[nH]c(N)n3)c(=O)c12 [CBK307301] | 90.8
COc1ccc2[nH]c(C(=O)N3CCn4nc(CO)cc4C3)c(C)c2c1 [CBK307302] | 106
COc1ccnc(C(=O)N(Cc2ccccn2)CC2CCCO2)c1 (stereo not shown) [CBK307303] | 94.1
CCOc1ccccc1CN(C)c1cc(C2CC(N)C2)nc(N)n1 (stereo not shown) [CBK307308] | 82.4

SMILES | viability at 28.5 h, 10 µM [%]
CCCc1nc(NC(CCO)c2ccc(C)cc2)c2cnn(C)c2n1 (stereo not shown) [CBK307309] | 85.3
COCC(=O)NCC1Cc2cc(F)cc(-c3ccc(C(C)=O)s3)c2O1 (stereo not shown) [CBK307310] | 98.4
CCCS(=O)(=O)NC(C)c1cnn(-c2ccc(OC)cc2)c1C (stereo not shown) [CBK307319] | 115
Cc1c(-c2ccc(N(C)C)nc2)c(C(F)(F)F)nn1C [CBK307320] | 83.5
O=C(NCCc1c[nH]cn1)N1CCCN(Cc2ccc(F)cc2)CC1 [CBK307323] | 111
Cc1ccc(C(=O)N(C)Cc2cc(-c3ccncc3)no2)c(=O)n1C [CBK307324] | 83.7
Cc1cc(-c2cn3cc(C(=O)N4CCNCC4)nc3c(=O)n2C)c(C)o1 [CBK307325] | 108
CCn1c(C2CCN(C(=O)CCCn3cncn3)CC2)nn(C)c1=O [CBK307326] | 92.4
Cn1c(N2CC[C@H](O)C2)nc2cc(C(=O)NCCn3cccn3)ccc21 [CBK307328] | 111
CCn1ncc(CN(C)C(=O)CCC2CCCCN2C)c1C (stereo not shown) [CBK307329] | 116
CCN(C(=O)c1cn2c3c(cccc3c1=O)CC2)C1CCOC(C)(C)C1 (stereo not shown) [CBK307332] | 90.1
Cc1cc(C)c(C)c(S(=O)(=O)NCCN2CCCCC2CO)c1C (stereo not shown) [CBK307333] | 90.4
Cc1nnnn1CC(=O)Nc1nn(C)c2cccc(N3CCOCC3)c12 [CBK307335] | 97
COCc1nc(NCCCn2c(C)cccc2=O)cc([C@H]2C[C@H](N)C2)n1 [CBK307337] | 103
CSc1ncc(C(=O)N2CCC(N3CCCC(CO)C3)CC2)c(=O)[nH]1 (stereo not shown) [CBK307338] | 90.3
Cc1cccn2c(CN3CCCC(O)C3)c(C(=O)N3CCCCC3)nc12 (stereo not shown) [CBK307342] | 94
COc1nc2ccn(CCC3CCOC3)c(=O)c2cc1C#N (stereo not shown) [CBK307343] | 101
Cn1cc(CN(C(=O)c2nc(N)nc3c2CCCC3)C2CC2)cn1 [CBK307352] | 90.1
Cc1nc(N)nc(NCCC2CCCOC2)c1Cl (stereo not shown) [CBK307353] | 97.1
CCCSCC(=O)Nc1nn(C)c2cccc(N3CCOCC3)c12 [CBK307354] | 105
CCOC(=O)N1CCN(Cc2ccc(OCC3CCCNC3)cc2)CC1 (stereo not shown) [CBK307355] | 73.8
COc1cccc(CN2CCCC(NC(=O)NCc3cccs3)C2)c1 (stereo not shown) [CBK307357] | 73.3
Cc1cccc(OCC2CCCN(C(=O)NCCc3cnn(C)c3)C2)c1 (stereo not shown) [CBK307358] | 96.9

SMILES | viability at 28.5 h, 10 µM [%]
COCCN(Cc1cnn(C)c1)Cc1cc(O)c2cc(F)ccc2n1 [CBK307359] | 103
CCCCN(Cc1ccc(C)s1)C(=O)C1CCc2nn(C)c(=O)n2C1 (stereo not shown) [CBK307360] | 94.6
COc1ccc(OCCCN)c(C(=O)N2CCc3nc[nH]c(=O)c3C2)c1 [CBK307361] | 97.2
Cn1ncc2c(NCCCC3CCOC3)nc(C(C)(C)C)nc21 (stereo not shown) [CBK307363] | 113
Cc1cccc(=O)n1CCCn1cc(C2CCOC2)nn1 (stereo not shown) [CBK307368] | 100
CC1(C)Cc2nc(N3CCOCC3)ncc2C(NC(=O)c2cccs2)C1 (stereo not shown) [CBK307369] | 92.7
O=C(CSc1nc(-c2cccs2)cc(C(F)(F)F)n1)N1CCSCC1 [CBK307371] | 107
CN1CCN(C(=O)CSc2nc(-c3cccs3)cc(C(F)(F)F)n2)CC1 [CBK307372] | 92.3
N#CCCCN1C(=O)C(O)(CC(=O)c2ccccn2)c2ccccc21 (stereo not shown) [CBK307373] | 121
CSC(C)CCN1CCn2nc(CNc3cnccn3)cc2C1 (stereo not shown) [CBK307376] | 95.5
CCOCCn1nc(C)cc1C(=O)NC(CC)c1cn2cccnc2n1 (stereo not shown) [CBK307377] | 79
COc1ccc(Cc2nc(C3CCC3)n(CC3COCCO3)n2)cc1 (stereo not shown) [CBK307378] | 87.8
Cc1coc(C)c1C(=O)CC1(O)C(=O)N(CCCC#N)c2ccccc21 (stereo not shown) [CBK307383] | 86
CC(=O)Nc1nnc(SCC(=O)N2CCN(c3ccc(Cl)cc3)CC2)s1 [CBK307384] | 86.6
Cn1cnnc1SCCNC(=O)N1CCc2sccc2C1 [CBK307385] | 97.3
COCCN(C(=O)c1[nH]c2c(F)cccc2c1C)C1CCN(C)CC1 [CBK307386] | 95
COCc1cn(C2CCN(c3cc(-n4cc(C)cn4)ncn3)CC2)nn1 [CBK307388] | 92.9
Cc1cnc2c(Cl)c(C(=O)NCC(F)(F)F)nn2c1 [CBK307391] | 93.1
Nc1nc(C2CC(O)C2)cc(N2CCC(Oc3ccccc3Cl)CC2)n1 (stereo not shown) [CBK307392] | 93.2
CN(Cc1nccn1C)c1nccc(N2CCN[C@H]3CS(=O)(=O)C[C@H]32)n1 [CBK307394] | 84.8
CCCCn1nc(Cn2cncn2)nc1CC1NC(=O)c2ccccc21 (stereo not shown) [CBK307395] | 108
OCC1(CNc2ncc(F)c(N3CCCC3)n2)CCCC1 [CBK307397] | 103
CCC(=O)N1CCCCC(NS(=O)(=O)c2ccc(-n3cccn3)cc2)C1 (stereo not shown) [CBK307398] | 82.5

SMILES | viability at 28.5 h, 10 µM [%]
Cc1cccc(=O)n1CCCn1cc(-c2ncc[nH]2)nn1 [CBK307401] | 90.7
CC(=O)NCC1CCC2(CCN(c3nc(C)nc(C)c3C)CC2)O1 (stereo not shown) [CBK307404] | 94.1
C1=C(CN2CCn3nc(CNc4cnccn4)cc3C2)CCCC1 [CBK307406] | 86.1
CC1(C)Cc2nc(N3CCOCC3)ncc2C(NC(=O)c2cn[nH]c2)C1 (stereo not shown) [CBK307409] | 106
COCCN1CCn2c(nc3cc(NC(=O)c4ccccc4)ccc32)C1 [CBK307410] | 89.4
COCCN1CCn2c(nc3cc(NC(=O)C4CCCCC4)ccc32)C1 [CBK307411] | 112
COC(=O)Nc1sc2c(c1C(=O)N1CCOCC1)CCC(C)C2 (stereo not shown) [CBK307413] | 95
O=C(NC1CCCc2nc(N3CCC(CO)CC3)ncc21)C1CCCC1 (stereo not shown) [CBK307415] | 87.4
CCc1nccn1CCN1CCCC(COc2ccccc2F)C1 (stereo not shown) [CBK307416] | 93.4
COCC(C)NC(=O)c1cnn2c(C(F)(F)F)cc(-c3cccs3)nc12 (stereo not shown) [CBK307417] | 104
CCc1cc(C(=O)Nc2nn(C)c3cccc(N4CCOCC4)c23)cs1 [CBK307419] | 110
CO[C@H]1CNC[C@@H]1NC(=O)c1cccc2c1NCCC2 [CBK307421] | 115
O=c1[nH]c(NCc2ccccc2)nc2c1CCCC2 [CBK307423] | 89.9
CCC(=O)Nc1ccc(C(=O)N2CCN(c3ccccc3)CC2)cc1 [CBK307425] | 105
Cn1cc(C(NC(=O)c2cn3ccsc3n2)C2CC(O)C2)cn1 (stereo not shown) [CBK307428] | 110
CCCCc1nccc(-c2ccc(OCC)c(C(=O)O)c2)n1 [CBK307429] | 82.8
CC(=O)NC1CCN(c2nc(C(C)(C)C)nc3c2cnn3C)CC1 [CBK307431] | 101
CN1CCC(N(C)C(=O)c2ccc(-c3ccccc3CO)cc2)C1 (stereo not shown) [CBK307432] | 103
Cn1c(N2CC[C@H](O)C2)nc2cc(C(=O)NC[C@@H]3CCCO3)ccc21 [CBK307433] | 109
CC1(Cn2ccnc2-c2ccccc2C(=O)O)CCCO1 (stereo not shown) [CBK307439] | 88.8
CN(C)C(=O)c1cn2cc(-c3cccs3)n(CC3CC3)c(=O)c2n1 [CBK307440] | 91.4
Cc1cc(-n2cccn2)ccc1CN1CCCCC1CN1CCOCC1 (stereo not shown) [CBK307442] | 83.2
